Data published in ChEMBL document CHEMBL5465560, “Selectivity Literature for EUbOPEN Chemogenomic Library” (2024).

Experiments:
[1] = molecular target: Serine/threonine-protein kinase 26 (Homo sapiens, UniProt Q9P289); assay: Selectivity interaction (Kinase panel (literature)) EUB0001199aCl STK26; conditions: at 1 µM
[2] = molecular target: Ribosomal protein S6 kinase alpha-4 (Homo sapiens) (UniProt O75676); assay: Selectivity interaction (KinomeScan (DiscoverX)) EUB0000666a RPS6KA4; conditions: at 10 µM
[3] = test system: Epidermal growth factor receptor (Homo sapiens), P00533 [UNDEFINED MUTATION]; assay: Selectivity interaction (KinomeScan (DiscoverX)) EUB0000229b EGFR; conditions: at 1 µM
[4] = molecular target: T1, Serine/threonine-protein kinase 3 (Homo sapiens) (UniProt Q13188); assay: Selectivity interaction (KinomeScan (DiscoverX)) EUB0001079a STK3; conditions: at 1 µM
T1 sequence (whole entry): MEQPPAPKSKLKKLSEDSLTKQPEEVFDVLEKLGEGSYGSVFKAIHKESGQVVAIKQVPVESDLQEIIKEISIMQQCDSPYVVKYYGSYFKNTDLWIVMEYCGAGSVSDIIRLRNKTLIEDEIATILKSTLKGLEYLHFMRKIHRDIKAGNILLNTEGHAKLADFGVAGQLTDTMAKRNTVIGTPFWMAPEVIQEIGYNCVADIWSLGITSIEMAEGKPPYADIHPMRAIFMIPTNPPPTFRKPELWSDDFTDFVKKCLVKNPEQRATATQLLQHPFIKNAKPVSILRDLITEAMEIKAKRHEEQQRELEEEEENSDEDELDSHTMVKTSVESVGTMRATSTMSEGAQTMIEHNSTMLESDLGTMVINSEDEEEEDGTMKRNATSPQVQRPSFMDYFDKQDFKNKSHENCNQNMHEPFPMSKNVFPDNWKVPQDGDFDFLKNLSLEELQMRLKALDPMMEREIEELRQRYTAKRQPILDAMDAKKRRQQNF

[5] = molecular target: T2, Cyclin-G-associated kinase (Homo sapiens) (UniProt O14976); assay: Selectivity interaction (Kinase panel (DSF assay)) EUB0001558a GAK
T2 sequence (whole entry): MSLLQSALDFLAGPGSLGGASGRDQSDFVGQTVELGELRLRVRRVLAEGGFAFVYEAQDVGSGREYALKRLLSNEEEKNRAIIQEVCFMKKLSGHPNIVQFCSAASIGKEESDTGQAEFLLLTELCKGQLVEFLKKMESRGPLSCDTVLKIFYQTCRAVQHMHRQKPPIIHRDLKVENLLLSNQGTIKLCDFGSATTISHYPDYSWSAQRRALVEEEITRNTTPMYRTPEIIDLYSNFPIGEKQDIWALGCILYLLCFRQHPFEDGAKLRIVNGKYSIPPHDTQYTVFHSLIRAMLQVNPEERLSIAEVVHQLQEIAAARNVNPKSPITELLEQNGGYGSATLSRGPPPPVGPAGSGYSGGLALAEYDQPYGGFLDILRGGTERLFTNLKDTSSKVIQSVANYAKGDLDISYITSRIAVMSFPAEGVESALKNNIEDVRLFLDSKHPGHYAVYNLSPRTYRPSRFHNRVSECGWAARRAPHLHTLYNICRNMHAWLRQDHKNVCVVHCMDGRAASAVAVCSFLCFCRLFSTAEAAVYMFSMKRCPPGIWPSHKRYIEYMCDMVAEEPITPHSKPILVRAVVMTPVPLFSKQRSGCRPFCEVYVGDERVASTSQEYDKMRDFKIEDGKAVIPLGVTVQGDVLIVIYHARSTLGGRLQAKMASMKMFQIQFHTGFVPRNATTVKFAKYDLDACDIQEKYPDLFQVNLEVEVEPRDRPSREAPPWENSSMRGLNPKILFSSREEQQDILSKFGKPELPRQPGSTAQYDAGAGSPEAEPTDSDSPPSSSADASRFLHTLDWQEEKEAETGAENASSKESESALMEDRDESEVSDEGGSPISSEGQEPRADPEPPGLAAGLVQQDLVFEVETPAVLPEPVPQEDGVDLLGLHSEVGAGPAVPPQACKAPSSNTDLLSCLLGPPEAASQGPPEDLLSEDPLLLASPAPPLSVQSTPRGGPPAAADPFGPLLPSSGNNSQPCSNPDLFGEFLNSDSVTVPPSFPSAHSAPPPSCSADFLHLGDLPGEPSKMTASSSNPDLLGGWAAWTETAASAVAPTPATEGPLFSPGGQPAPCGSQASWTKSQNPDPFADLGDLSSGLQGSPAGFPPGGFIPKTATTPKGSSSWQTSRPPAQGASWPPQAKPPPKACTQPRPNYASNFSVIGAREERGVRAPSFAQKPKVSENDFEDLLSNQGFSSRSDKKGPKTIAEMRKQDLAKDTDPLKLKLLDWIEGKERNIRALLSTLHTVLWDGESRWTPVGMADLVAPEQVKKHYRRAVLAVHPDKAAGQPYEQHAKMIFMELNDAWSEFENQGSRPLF

[6] = molecular target: Serine/threonine-protein kinase PAK 1 (Homo sapiens) (UniProt Q13153); assay: Selectivity interaction (Kinase panel (DSF assay)) EUB0001559a PAK1
[7] = molecular target: Vascular endothelial growth factor receptor 2 (Homo sapiens, UniProt P35968); assay: Selectivity interaction (Kinase panel (enzymatic assay)) EUB0000595a KDR
[8] = molecular target: Ribosomal protein S6 kinase alpha-4 (Homo sapiens) (UniProt O75676); assay: Selectivity interaction (KinomeScan (DiscoverX)) EUB0000045b RPS6KA4; conditions: at 10 µM
[9] = molecular target: Myosin light chain kinase, smooth muscle (Homo sapiens, UniProt Q15746); assay: Selectivity interaction (KinomeScan (DiscoverX)) EUB0000618a MYLK; conditions: at 10 µM
[10] = molecular target: T3, Hormonally up-regulated neu tumor-associated kinase (Homo sapiens) (UniProt P57058); assay: Selectivity interaction (KinomeScan (DiscoverX)) EUB0000695a HUNK; conditions: at 100 nM
T3 sequence (whole entry): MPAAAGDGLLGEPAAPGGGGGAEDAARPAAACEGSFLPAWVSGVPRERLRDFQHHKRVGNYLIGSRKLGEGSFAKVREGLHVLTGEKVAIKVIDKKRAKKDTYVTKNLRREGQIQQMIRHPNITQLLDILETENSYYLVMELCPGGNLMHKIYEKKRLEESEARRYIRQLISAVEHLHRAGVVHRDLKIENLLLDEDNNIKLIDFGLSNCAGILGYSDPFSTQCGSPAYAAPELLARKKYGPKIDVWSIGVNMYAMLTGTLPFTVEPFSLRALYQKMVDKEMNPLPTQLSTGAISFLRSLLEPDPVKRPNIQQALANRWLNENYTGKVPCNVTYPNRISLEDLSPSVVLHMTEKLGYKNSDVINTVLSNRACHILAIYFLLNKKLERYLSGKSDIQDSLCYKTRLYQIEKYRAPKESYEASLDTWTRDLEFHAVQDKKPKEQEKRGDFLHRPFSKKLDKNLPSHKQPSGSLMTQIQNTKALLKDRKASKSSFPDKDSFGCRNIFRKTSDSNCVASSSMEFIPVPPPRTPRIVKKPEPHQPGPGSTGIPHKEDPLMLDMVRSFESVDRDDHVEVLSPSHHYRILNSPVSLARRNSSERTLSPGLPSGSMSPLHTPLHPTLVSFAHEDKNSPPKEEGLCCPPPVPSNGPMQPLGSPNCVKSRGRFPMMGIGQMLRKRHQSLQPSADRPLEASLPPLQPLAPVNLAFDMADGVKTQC

Chain of Ribosomal protein S6 kinase alpha-4 (Homo sapiens) (O75676 whole entry, looked up): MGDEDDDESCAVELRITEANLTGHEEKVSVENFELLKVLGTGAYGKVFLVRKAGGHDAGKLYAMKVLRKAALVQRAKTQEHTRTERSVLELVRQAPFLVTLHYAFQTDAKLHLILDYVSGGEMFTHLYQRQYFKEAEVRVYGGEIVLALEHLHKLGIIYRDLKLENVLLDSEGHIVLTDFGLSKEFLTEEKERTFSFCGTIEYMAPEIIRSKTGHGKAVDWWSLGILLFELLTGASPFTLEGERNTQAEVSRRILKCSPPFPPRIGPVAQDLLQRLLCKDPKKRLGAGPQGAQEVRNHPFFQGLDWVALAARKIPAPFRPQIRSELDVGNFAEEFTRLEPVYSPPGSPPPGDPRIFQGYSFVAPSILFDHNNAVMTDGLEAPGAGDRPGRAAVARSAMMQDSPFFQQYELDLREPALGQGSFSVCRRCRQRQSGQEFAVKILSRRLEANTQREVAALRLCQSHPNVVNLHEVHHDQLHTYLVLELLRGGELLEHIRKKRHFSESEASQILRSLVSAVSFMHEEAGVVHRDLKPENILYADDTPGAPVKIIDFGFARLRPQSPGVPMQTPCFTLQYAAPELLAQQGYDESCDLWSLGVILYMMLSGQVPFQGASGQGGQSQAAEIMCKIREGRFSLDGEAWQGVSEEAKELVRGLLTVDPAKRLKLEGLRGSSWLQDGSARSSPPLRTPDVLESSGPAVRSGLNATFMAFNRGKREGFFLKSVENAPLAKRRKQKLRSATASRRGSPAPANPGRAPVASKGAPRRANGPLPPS
Chain of Epidermal growth factor receptor (Homo sapiens), P00533 [UNDEFINED MUTATION] (P00533 whole entry, looked up, change not shown): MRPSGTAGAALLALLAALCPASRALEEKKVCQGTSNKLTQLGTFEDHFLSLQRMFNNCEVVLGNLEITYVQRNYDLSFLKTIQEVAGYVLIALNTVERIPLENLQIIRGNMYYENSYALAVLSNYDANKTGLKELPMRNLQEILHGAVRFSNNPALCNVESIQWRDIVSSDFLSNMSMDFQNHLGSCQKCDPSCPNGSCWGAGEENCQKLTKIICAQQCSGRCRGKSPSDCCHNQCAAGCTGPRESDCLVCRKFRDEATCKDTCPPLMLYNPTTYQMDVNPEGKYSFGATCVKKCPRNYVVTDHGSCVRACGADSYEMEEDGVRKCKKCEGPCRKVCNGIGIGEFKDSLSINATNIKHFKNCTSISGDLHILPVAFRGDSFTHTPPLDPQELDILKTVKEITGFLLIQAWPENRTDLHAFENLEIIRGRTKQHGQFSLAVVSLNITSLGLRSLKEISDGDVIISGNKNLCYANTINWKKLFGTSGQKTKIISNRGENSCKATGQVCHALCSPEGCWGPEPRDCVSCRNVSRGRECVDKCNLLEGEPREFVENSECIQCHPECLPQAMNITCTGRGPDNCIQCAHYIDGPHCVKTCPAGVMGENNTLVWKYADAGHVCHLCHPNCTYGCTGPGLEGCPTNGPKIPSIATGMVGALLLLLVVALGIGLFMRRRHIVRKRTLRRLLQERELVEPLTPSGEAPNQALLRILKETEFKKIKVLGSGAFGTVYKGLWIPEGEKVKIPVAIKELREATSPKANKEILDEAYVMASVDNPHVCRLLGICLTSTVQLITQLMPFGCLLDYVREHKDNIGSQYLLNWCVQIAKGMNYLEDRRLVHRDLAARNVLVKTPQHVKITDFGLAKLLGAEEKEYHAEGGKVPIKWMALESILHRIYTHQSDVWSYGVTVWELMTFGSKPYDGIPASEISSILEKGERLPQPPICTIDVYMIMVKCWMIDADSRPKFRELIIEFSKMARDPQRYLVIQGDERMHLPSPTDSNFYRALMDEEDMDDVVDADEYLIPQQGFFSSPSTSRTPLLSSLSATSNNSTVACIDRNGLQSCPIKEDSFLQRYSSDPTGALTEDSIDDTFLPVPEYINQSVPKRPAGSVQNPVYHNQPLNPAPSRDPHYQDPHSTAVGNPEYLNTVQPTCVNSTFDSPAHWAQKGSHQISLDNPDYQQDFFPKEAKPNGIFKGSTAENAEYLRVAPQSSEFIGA
Chain of Myosin light chain kinase, smooth muscle (Q15746 whole entry): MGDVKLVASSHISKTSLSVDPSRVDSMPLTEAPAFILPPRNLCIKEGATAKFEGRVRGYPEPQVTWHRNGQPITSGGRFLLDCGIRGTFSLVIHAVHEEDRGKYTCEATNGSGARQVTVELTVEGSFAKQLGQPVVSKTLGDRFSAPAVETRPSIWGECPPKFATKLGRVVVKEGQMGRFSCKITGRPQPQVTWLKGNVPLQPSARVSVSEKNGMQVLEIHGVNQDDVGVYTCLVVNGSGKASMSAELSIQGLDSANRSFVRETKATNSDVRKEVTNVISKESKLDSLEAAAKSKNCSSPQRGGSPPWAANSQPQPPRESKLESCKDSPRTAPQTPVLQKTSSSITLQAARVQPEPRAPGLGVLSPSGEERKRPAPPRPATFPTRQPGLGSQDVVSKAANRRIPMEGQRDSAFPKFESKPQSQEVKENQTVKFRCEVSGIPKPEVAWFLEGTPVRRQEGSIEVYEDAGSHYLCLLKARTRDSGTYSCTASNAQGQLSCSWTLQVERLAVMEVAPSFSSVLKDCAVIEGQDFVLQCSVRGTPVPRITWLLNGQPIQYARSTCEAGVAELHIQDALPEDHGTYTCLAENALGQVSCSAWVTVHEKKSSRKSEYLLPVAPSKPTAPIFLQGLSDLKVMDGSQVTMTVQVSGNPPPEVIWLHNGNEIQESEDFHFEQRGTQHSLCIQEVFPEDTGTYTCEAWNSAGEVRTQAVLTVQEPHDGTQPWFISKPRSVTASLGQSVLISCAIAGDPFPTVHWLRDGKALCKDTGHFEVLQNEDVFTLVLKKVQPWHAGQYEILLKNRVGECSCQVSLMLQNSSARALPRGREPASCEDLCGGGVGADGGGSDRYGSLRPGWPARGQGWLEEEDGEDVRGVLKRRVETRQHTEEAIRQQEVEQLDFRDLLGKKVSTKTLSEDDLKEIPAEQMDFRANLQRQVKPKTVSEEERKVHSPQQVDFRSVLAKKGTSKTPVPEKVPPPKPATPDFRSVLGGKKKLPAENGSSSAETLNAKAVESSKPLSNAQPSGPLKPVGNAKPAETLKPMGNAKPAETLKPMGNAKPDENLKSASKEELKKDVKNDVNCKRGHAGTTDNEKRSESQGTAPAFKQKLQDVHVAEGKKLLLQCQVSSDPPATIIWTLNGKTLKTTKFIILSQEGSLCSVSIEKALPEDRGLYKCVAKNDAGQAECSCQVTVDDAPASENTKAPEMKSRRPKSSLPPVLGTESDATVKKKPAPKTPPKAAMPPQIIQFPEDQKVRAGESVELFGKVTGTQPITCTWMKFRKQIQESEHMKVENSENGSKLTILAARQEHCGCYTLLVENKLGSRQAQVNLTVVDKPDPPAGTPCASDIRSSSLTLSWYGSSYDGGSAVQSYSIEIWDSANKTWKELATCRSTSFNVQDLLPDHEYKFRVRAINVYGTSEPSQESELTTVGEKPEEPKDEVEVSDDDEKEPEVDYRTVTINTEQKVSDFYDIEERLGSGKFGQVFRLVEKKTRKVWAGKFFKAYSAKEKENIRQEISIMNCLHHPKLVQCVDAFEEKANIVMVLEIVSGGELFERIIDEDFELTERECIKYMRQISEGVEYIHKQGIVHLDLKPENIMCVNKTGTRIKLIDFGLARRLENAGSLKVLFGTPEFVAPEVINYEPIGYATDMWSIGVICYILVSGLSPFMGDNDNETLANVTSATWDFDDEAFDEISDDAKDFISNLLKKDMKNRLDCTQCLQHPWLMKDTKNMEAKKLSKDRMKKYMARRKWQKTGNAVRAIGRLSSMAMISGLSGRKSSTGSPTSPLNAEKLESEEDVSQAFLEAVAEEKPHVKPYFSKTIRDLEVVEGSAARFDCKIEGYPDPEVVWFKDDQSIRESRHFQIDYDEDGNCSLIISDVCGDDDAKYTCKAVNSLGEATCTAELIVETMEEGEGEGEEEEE
Chain of Serine/threonine-protein kinase PAK 1 (Homo sapiens) (Q13153 whole entry): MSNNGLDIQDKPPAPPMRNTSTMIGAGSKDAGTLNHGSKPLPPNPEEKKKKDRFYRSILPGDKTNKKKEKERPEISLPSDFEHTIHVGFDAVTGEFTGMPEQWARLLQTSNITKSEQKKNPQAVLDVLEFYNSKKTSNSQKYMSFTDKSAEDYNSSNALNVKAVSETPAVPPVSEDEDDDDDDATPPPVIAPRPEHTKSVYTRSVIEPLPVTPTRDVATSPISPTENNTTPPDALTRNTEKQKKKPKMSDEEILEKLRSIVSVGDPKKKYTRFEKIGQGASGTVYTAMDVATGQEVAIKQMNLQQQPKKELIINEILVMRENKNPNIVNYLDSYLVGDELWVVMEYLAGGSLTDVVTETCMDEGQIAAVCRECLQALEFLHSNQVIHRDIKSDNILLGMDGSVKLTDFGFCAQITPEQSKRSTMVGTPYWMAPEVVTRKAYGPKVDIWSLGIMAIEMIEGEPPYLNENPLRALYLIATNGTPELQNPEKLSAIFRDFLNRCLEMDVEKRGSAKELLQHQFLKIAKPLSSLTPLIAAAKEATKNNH
Chain of Serine/threonine-protein kinase 26 (Q9P289 2-416 limits assumed): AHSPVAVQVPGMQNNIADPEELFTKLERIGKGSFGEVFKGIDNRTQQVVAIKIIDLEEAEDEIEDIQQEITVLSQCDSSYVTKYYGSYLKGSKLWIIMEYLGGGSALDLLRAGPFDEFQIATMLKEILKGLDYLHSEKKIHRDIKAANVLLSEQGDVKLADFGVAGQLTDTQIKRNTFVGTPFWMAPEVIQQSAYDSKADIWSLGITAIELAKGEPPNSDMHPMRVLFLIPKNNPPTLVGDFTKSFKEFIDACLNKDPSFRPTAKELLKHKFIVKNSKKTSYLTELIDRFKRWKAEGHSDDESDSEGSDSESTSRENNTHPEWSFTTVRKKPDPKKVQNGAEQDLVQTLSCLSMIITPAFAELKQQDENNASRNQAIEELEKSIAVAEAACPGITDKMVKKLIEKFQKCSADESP

SMILES: CN1Cc2nccc(-c3cn(C)nc3-c3ccc(F)cc3)c2C1=O
- % of inhibition [1]: 8%

SMILES: O=C(NOC[C@H](O)CO)c1ccc(F)c(F)c1Nc1ccc(I)cc1F
- % of control [2]: 100%

SMILES: COc1cc(N(C)c2ccnc3ccc(C(F)(F)F)cc23)cc(OC)c1OC
- % binding [3]: 95%

SMILES: Nc1cnc(N2CCc3cc(S(=O)(=O)Nc4c(F)cc(Cl)cc4F)cc(N4CCCC4=O)c32)nc1 [TP-020n]
- % of control [4]: 96%

SMILES: CC(C)(O)[C@H](F)CN1Cc2cc(NC(=O)c3cnn4cccnc34)c(N3CCOCC3)cc2C1=O
- dTM [5]: 2.3 K

SMILES: CN(C(=O)c1cnn2cccnc12)c1cc2c(cc1N1CCOCC1)C(=O)N(C[C@@H](F)C(C)(C)O)C2
- dTM [6]: -0.1 K

SMILES: COCC(=O)NC/C=C/c1ccc2ncnc(Nc3ccc(Oc4ccc(C)nc4)c(C)c3)c2c1 [CP-724714]
- IC50 [7]: > 10 µM

SMILES: C=CC(=O)Nc1cc(-n2c(=O)ccc3cnc4ccc(-c5ccc(NS(C)(=O)=O)cc5)cc4c32)ccc1C
- % of control [8]: 81%

SMILES: O[C@H]1CC[C@H](Nc2ncc3nc(Nc4c(F)cc(F)cc4F)n([C@H]4CCOC4)c3n2)CC1
- % of control [9]: 94%

SMILES: Cc1cc(F)c(C(=O)Nc2cccc(-c3nncn3C(C)C)n2)cc1-n1cnc(C2CC2)c1
- % of control [10]: 100%
